Source: ChEMBL document CHEMBL1201862, “PubChem BioAssay data set” (2004)
Where “and” joins values, the source holds several entries; their conditions need not be identical. Identical values can stand only once. One block for each compound: values may come before it. Calls of active or inactive are those of the source.

Experiments:
[1] = off-target signal loss in HeLa-CEM21 co-culture – HeLa F-luc CTL cells, cherry-picked, counter-screen for HIV-1 Env fusion inhibitor project, dose response (AID 652040); assay type: functional, cell-based;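 note: potency for signal decrease marking cytotoxic or nonspecific inhibition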
[2] = ZM109 Env clade C HIV-1 fusion inhibitors, dose response, HeLa effector, CEM target cells, luciferase, cherry-pick (AID 652058); assay type: functional, cell-based
[3] = inhibitors of HIV Env-driven cell fusion, dose response, cherry-pick (AID 652057); assay type: functional, cell-based
[4] = inhibitors of clade B AD8 Env fusion, dose response, cell-based, cherry-pick (AID 652062); assay type: functional;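 note: luciferase signal from cell-cell fusion driven by HIV-1 clade B AD8 Env; potency is for inhibitors of fusion seen as a drop in luminescence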
Fatty acid synthase = Fatty acid synthase (Homo sapiens, UniProt P49327); experiment: FAS thioesterase domain inhibitors, dose response, biochemical, kinetic fluorescence intensity (AID 624326); assay type: functional;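 note: rate of fluorescence rise from hydrolysis of a fluorogenic O-methyl fluorescein ester substrate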
Chain of Fatty acid synthase (P49327 whole entry, the tested form may be a part): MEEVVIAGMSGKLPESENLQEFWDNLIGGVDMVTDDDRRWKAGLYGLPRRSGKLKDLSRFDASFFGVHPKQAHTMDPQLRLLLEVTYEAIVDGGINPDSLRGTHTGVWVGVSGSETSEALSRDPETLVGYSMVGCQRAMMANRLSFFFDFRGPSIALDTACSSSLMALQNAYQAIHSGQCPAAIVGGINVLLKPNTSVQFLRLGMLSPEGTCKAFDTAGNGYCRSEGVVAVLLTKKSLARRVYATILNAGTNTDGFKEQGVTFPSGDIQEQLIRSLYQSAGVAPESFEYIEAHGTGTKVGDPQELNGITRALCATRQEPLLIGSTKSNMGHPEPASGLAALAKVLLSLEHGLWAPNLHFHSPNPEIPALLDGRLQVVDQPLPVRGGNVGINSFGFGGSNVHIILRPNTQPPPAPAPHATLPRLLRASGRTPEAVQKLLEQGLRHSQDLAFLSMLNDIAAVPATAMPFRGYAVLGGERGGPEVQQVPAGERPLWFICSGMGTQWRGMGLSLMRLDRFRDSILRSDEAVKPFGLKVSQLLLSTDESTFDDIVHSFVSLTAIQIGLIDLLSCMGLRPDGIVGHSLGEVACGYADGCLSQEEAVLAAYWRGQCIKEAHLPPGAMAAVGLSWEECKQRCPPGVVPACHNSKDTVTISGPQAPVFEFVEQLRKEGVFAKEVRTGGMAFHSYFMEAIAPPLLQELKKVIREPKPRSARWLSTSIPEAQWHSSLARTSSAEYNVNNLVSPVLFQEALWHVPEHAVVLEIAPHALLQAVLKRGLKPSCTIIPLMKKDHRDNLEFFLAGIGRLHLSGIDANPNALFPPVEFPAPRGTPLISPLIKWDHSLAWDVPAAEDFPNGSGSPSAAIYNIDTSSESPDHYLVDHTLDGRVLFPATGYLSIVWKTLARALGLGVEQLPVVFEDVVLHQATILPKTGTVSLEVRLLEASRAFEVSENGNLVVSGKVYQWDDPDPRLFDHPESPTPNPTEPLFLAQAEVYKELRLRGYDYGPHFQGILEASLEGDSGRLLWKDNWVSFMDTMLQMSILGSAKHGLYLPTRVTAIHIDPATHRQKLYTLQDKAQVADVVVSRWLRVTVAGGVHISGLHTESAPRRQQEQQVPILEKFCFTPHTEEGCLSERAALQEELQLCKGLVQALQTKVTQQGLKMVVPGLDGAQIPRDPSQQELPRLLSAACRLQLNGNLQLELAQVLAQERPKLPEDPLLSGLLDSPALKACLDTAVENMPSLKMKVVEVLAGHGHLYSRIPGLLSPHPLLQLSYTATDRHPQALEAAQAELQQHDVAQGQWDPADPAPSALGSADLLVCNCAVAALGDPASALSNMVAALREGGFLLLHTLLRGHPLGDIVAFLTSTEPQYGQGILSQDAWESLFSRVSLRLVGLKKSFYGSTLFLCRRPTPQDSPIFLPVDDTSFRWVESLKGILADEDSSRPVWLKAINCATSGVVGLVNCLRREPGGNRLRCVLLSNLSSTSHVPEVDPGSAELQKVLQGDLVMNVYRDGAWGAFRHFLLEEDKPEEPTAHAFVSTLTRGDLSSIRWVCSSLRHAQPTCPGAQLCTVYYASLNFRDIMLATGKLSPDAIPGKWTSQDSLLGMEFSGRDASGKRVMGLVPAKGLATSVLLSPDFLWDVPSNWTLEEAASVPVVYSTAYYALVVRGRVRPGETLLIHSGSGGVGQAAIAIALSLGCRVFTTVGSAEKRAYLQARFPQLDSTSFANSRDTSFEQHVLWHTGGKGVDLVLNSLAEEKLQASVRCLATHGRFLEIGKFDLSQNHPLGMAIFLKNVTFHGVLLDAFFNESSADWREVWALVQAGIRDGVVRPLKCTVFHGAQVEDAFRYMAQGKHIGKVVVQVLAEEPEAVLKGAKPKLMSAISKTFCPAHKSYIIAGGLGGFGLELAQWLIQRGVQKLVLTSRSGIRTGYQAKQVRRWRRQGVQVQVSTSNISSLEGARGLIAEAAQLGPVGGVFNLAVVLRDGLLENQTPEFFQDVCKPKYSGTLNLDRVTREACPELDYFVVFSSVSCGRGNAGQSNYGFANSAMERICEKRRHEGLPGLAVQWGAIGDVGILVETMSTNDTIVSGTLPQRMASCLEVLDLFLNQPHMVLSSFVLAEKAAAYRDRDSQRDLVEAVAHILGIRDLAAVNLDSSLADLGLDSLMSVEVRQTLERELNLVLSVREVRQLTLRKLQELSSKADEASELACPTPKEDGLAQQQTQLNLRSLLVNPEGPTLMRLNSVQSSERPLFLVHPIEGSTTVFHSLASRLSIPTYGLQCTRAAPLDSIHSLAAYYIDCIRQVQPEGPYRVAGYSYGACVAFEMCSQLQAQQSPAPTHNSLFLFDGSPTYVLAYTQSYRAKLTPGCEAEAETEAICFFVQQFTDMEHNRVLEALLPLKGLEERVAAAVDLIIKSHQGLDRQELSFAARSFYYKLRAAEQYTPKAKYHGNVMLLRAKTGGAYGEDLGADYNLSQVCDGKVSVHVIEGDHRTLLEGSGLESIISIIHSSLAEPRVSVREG

[5] = molecular target: T1, DNA repair protein RAD52 homolog (Homo sapiens, UniProt P43351); assay type: functional, biochemical
T1 sequence (P43351 whole entry): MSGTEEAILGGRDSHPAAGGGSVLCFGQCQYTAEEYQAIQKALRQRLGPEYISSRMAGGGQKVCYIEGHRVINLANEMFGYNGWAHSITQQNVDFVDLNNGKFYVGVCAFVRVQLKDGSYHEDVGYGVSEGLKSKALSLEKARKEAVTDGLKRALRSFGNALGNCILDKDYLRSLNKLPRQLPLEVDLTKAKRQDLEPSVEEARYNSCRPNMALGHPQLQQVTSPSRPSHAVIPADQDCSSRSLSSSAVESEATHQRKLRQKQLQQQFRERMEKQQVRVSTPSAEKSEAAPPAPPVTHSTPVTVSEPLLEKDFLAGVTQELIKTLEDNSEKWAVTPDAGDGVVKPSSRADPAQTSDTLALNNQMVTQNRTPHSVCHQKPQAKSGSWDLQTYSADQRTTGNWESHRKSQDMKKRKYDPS

[6] = molecular target: T2, Heat shock factor protein 1 (Mus musculus, UniProt P38532); experiment: HSF1 potentiators in luciferase reporter cells, confirmation, cell-based, NIH3T3, luminescence, dose retest (AID 435004); assay type: functional;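 note: stress induced by proteasome inhibitor MG132 added 30 min after compound; luciferase reporter driven by HSF1 response element in NIH3T3 cells; actives raise luminescence as potentiators of the MG132 stress response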
T2 sequence (P38532 whole entry): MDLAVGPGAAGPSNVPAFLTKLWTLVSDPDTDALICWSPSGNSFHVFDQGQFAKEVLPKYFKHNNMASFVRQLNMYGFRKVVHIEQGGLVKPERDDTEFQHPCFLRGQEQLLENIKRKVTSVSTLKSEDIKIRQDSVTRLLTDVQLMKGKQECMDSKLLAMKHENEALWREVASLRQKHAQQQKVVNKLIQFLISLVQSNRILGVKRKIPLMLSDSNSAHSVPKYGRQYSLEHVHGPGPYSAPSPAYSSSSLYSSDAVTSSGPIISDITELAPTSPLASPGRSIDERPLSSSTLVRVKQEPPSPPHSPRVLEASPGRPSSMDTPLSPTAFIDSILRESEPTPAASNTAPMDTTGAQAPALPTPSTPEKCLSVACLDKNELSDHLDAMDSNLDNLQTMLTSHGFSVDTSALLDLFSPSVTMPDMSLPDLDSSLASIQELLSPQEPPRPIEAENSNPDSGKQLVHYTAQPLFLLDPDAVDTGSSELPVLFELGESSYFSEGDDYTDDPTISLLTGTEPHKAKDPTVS

[7] = molecular target: Induced myeloid leukemia cell differentiation protein Mcl-1 (Homo sapiens, UniProt Q07820); assay type: functional
Chain of Induced myeloid leukemia cell differentiation protein Mcl-1 (Q07820 whole entry): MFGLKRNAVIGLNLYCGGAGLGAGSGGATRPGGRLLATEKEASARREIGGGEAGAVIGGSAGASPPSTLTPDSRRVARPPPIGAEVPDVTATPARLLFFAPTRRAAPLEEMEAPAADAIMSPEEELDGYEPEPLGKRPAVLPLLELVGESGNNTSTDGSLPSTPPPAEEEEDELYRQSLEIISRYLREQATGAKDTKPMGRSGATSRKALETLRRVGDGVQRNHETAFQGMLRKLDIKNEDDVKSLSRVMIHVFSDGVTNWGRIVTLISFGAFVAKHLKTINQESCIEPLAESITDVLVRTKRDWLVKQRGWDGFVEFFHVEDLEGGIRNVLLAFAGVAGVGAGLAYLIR

[8] = Shn3 3'UTR reporter inhibitors, dose response, cell-based, Clone20 osteoblasts, firefly luciferase, cherry-picked (AID 624132); assay type: functional;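 note: firefly luciferase luminescence from reporter carrying the Shn3 3'UTR in osteoblasts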
Cytochrome P450 2C19 = Cytochrome P450 2C19 (Homo sapiens, UniProt P33261); experiment: Cytochrome panel assay with activity outcomes. Panel member name: p450-cyp2c19 Compounds with AC50 equal or less than 10 uM are considered active; assay type: functional; settings: read-out: AC50
Chain of Cytochrome P450 2C19 (P33261 whole entry): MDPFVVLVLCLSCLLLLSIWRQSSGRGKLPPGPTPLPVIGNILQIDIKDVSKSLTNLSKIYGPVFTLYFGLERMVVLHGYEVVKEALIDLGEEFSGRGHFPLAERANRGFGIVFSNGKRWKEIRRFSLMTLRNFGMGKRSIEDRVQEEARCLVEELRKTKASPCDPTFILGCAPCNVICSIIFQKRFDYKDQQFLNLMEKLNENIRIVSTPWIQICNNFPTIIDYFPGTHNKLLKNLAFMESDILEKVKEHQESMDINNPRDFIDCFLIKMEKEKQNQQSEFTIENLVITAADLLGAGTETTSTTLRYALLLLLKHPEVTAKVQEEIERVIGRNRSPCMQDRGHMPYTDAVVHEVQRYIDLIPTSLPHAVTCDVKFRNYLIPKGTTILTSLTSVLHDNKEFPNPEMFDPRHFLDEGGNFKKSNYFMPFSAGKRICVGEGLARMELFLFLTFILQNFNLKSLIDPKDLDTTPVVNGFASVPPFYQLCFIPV

Cytochrome P450 1A2 = molecular target: T3, Cytochrome P450 1A2 (Homo sapiens, UniProt P05177);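 note: PubChem cytochrome P450 panel assay, CYP1A2 panel member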
T3 sequence (P05177 whole entry): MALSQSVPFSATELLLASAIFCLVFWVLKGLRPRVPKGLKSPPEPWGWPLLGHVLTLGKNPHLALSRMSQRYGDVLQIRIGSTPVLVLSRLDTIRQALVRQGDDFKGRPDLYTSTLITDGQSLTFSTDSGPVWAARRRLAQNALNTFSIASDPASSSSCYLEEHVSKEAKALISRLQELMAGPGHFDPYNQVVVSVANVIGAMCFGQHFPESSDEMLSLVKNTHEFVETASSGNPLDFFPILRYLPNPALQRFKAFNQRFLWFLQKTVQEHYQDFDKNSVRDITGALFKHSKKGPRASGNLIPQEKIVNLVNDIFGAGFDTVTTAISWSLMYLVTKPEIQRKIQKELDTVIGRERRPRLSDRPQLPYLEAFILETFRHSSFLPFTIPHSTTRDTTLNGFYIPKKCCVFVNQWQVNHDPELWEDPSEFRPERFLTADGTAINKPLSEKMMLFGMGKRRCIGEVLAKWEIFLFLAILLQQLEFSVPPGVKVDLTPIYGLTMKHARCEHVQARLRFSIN

Cytochrome P450 2C9 = Cytochrome P450 2C9 (Homo sapiens, UniProt P11712)
Chain of Cytochrome P450 2C9 (P11712 whole entry): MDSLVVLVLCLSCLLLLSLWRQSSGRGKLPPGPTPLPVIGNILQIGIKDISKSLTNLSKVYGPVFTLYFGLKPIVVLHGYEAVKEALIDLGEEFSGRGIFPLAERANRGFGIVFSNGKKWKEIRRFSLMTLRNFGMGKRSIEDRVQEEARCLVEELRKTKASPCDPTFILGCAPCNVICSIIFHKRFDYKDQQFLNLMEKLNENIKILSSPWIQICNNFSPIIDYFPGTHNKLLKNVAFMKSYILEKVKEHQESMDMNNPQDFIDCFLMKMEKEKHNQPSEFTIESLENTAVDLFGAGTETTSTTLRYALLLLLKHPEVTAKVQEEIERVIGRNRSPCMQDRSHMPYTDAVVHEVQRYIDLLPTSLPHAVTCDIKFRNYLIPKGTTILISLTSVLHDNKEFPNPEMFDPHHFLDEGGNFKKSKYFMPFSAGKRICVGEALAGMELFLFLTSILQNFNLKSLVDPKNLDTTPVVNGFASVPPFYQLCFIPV

Cytochrome P450 2D6 = Cytochrome P450 2D6 (Homo sapiens, UniProt P10635);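 note: CYP2D6 member of a cytochrome P450 panel assay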
Chain of Cytochrome P450 2D6 (P10635 whole entry): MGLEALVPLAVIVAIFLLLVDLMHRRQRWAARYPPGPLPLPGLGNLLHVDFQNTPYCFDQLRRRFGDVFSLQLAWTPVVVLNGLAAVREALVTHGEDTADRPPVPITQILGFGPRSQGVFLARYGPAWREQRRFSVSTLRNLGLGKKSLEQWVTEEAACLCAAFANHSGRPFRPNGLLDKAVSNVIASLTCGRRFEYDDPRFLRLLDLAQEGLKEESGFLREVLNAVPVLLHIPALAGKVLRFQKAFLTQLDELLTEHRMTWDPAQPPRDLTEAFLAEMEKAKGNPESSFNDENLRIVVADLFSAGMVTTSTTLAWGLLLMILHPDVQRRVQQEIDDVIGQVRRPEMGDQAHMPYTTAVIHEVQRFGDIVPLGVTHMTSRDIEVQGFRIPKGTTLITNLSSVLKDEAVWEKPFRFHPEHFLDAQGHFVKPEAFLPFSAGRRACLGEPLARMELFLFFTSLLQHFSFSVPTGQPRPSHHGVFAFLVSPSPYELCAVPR

H9c2 = experiment: cells; assay type: functional, cell-based; settings: Rattus norvegicus, H9c2, Myocardium;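 note: confirmatory concentration-response retest of ultra-high-throughput screening hits for modulation of myocardial damage; cell death induced by hydrogen peroxide oxidative stress; compound pretreatment for 60 min then peroxide exposure for 2 h; potency is for protecting the cells against peroxide damage rather than for killing them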
Cytochrome P450 3A4 = Cytochrome P450 3A4 (Homo sapiens, UniProt P08684);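 note: CYP3A4 tested as one member of a cytochrome P450 panel screen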
Chain of Cytochrome P450 3A4 (P08684 whole entry): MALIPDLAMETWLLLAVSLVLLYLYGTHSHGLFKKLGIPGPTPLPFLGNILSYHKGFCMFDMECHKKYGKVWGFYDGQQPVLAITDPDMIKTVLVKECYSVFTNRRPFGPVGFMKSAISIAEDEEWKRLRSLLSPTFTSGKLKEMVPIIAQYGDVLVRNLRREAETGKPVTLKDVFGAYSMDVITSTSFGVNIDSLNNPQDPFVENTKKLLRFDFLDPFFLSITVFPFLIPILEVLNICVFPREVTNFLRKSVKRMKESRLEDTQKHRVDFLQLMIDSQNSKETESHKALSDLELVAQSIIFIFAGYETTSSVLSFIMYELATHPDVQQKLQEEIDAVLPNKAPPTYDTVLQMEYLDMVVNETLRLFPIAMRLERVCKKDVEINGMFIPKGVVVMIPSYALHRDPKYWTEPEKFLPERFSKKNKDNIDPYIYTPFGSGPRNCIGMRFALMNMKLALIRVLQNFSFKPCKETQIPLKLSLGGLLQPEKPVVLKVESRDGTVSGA

Compound: Cn1c(C(=O)NCCCN2CCN(c3ccccc3F)CC2)cc2c(O)nc3ccccc3c21
- AC50 [1]: 24.5 µM (active)
- AC50 [2]: 10.3 µM (active)
- AC50 [3]: 2.82 µM (active)
- AC50 [4]: 8.93 µM (active)

Compound: O=C(Nc1cc(Cl)cc(Cl)c1)C(c1ccccc1)N1CCCCC1 (stereo unspecified)
- AC50 [1]: 7.36 µM (active)
- AC50 [2]: 8.47 µM (active)
- AC50 [3]: 3.35 µM (active)

- IC50 (Fatty acid synthase): 17.7 µM (active)
Compound: CCN(CC(=O)NCc1cccs1)S(=O)(=O)c1ccc([N+](=O)[O-])cc1

- AC50 [5]: 12.3 µM (active)
Compound: C[C@@H]1NC(=O)[C@H](CCCN=C(N)N)NC(=O)c2cc([N+](=O)[O-])cc(I)c2NCCC[C@@H](C(N)=O)NC1=O

Compound: Sc1[nH]cnc2c3cc(Cl)ccc3nc1-2
- AC50 [1]: 2.35 µM (active)
- AC50 [3]: 3.37 µM (active)

- AC50 [5]: 3.54 µM (active)
- EC50 [6]: 59.2 µM (active)
Compound: COc1cc(COCC(O)CN2CCN(CCN3C(=O)c4cccc5cccc(c45)C3=O)CC2)cc(OC)c1OC (stereo unspecified)

- IC50 [7]: 3.76 µM (not active)
Compound: Cc1ccc(/C=C2\SC(=S)N(Cc3ccccc3)C2=O)o1

Compound: COc1ccc(C2N(S(=O)(=O)c3ccc(C)cc3)CCN2S(=O)(=O)c2ccc(C)cc2)cc1
- AC50 [1]: 6.47 µM (active)
- AC50 [2]: 0.715 µM (active)
- AC50 [3]: 3.05 µM (active)
- AC50 [4]: 4.68 µM (active)

- IC50 [7]: 0.852 µM (active)
Compound: CCOc1ccc(NC(=O)N(CCN2CCOCC2)Cc2ccc3c(c2)CCCN3CC)cc1

Compound: CCC(C)[C@H]1CN=C(S)N1CCc1cc(C(F)(F)F)cc(C(F)(F)F)c1 (stereo partly specified)
- AC50 [8]: 21.6 µM (active)

Compound: COc1ccc(CCNC(=O)CCC(=O)N2CCOc3ccc(Cl)cc32)cc1OC
- AC50 [8]: > 70 µM (inactive)

- AC50 (Cytochrome P450 2C19): 35.5 µM (inconclusive)
- AC50 (Cytochrome P450 1A2): 14.1 µM (inconclusive)
- AC50 (Cytochrome P450 2C9): inconclusive
Compound: Cc1cc(C(=O)OCC(=O)NCCCN2CCCC2=O)c2ccccc2n1

- AC50 (Cytochrome P450 2C19): 4.47 µM (inconclusive)
- AC50 (Cytochrome P450 2D6): 7.08 µM (inconclusive)
- AC50 (Cytochrome P450 2C9): inconclusive
Compound: Cc1nn(C(=O)CN2C(=O)c3ccccc3C2=O)c(C)c1Br

Compound: Cc1ccc(-c2nnn(CC(=O)N(CC3CCCO3)C(C(=O)NC3CCCCC3)c3ccc(F)cc3)n2)o1 (stereo unspecified)
- AC50 [1]: 1.27 µM (active)
- AC50 [2]: 2.45 µM (active)
- AC50 [3]: 0.79 µM (active)
- AC50 [4]: 2.56 µM (active)

- AC50 [5]: 7.21 µM (active)
Compound: CN(C)CCNC(=O)c1cccc(-c2cnc3c(NC=O)cc(-c4cc(F)c(F)c(F)c4)cn23)c1

Compound: O=C(NCC(F)(F)F)[C@@H]1c2ccccc2C(=O)N(CC23CC4CC(CC(C4)C2)C3)[C@H]1c1ccc(CO)cc1
- AC50 [3]: 0.304 µM (active)
- AC50 [4]: 2.43 µM (active)

Compound: CN1CC[C@@H]2CN[C@H](c3ccccc3Br)C[C@@H]21
- AC50 [5]: 4.58 µM (active)

Compound: CC(C)CC#Cc1ccc2c(c1)O[C@@H](CN(C)S(=O)(=O)c1ccc(F)cc1)[C@@H](C)CN([C@H](C)CO)S2(=O)=O
- AC50 [2]: 10.1 µM (active)
- AC50 [3]: 19.6 µM (active)
- AC50 [4]: 10.2 µM (active)

- AC50 [5]: 4.16 µM (active)
Compound: C[N+](C)(C)CC(=O)N/N=C/c1c2ccccc2cc2ccccc12

Compound: Oc1cccc2c(O)nccc12
- AC50 (Cytochrome P450 1A2): 15.8 µM (inconclusive)
- IC50 (H9c2): 31.3 µM (inactive)
- AC50 (Cytochrome P450 3A4): 25.1 µM (inconclusive)
- AC50 (Cytochrome P450 2C9): inconclusive

- AC50 (Cytochrome P450 2C9): inconclusive
Compound: O=S(=O)(c1cccc2c(Cl)cccc12)N1CCCNCC1
- AC50 (Cytochrome P450 1A2): 15.8 µM (inconclusive) and 31.6 µM (inconclusive)
- AC50 (Cytochrome P450 2D6): 39.8 µM (inconclusive) and 25.1 µM (inconclusive)
